Tests used:
Type in all cases: physicochemical
[1] = Hydrolytic stability, extraction capability after contact with 3 mol/L nitric acid; details: 0.1 mol/L in n-dodecane/1-octanol (95:5)%vol; for extraction capability of Eu (III) (DEu): during the different contact time periods with 3 mol/L nitric acid
Experimental: (§1) The organic solutions of the compounds to be tested were prepared and equilibrated with 3 mol/L nitric acid, as has been indicated in sections A) and B).
(§2) Then, 700 µL of the equilibrated organic phase were put in vials of an approximate volume of 2 mL and were contacted with 700 µL of 3 mol/L nitric acid. They were stirred vigorously in an oscillating shaker for periods of 7, 15, 24, 36, 42, 50 and 66 days. After each permanent contact period with the nitric acid aqueous phase, the extraction capability of the organic solution was evaluated, taking 600 µL of the corresponding organic phase and contacting it with 600 µL of aqueous phase formed by a 3 mol/L nitric acid solution spiked with 600 Bq of ^152Eu and with 600 Bq of ^241Am. It was stirred vigorously by means of an oscillating shaker for 15 minutes. The separation of the phases was carried out by centrifugation at 5000 rpm. 400 µL of each of the phases were taken for the determination of the concentration of ^152Eu and ^241Am, as in section C).
(§3) After the permanent contact periods with the 3 mol/L nitric acid solution, the extraction capability of the organic solutions of both compounds was evaluated with 3 mol/L nitric acid solutions containing 600 Bq of ^152 Eu and 600 Bq of ^241Am.

[2] = Radiolytic stability, extraction capability after irradiation; details: for DEu / DAm: after 1000 kGy
Experimental: The tests of stability against irradiation were carried out in the NAYADE facility at CIEMAT site, with external ^60Co sources with an approximate activity of 5000 Ci, with a homogeneous irradiation flux. The dose rate applied in all the experiments was 4 kGy/h and integrated doses of 250 kGy, 500 kGy, 750 kGy and 1000 kGy were considered. The irradiation device consists of a metal cylinder which is introduced in a rack wherein the ^60CO sources are placed radially, such that the irradiation is homogeneous. The irradiation process is carried out submersing the device in a pool of water with a depth of 4 meters.
Irradiation tests of the solid compound (in the absence of solvent) and of the compound dissolved in the "n-dodecane/1-octanol (95:5)%vol" mixture, equilibrated with 3 mol/L nitric acid, were carried out. The organic solutions were prepared and equilibrated as detailed in the previous sections A) and B).
Once each programmed integrated dose was reached, the extraction capability of the organic samples was evaluated as detailed in section C).
The irradiation of compound 4 in solid form (in the absence of solvent) and dissolved at a 0.1 mol/L concentration in the "n-dodecane/1-octanol 1 (95:5)%vol" mixture, equilibrated with 3 mol/L nitric acid, was carried out. The applied dose rate was 4 kGy/h and the considered integrated doses were 250 kGy, 500 kGy, 750 kGy and 1000 kGy. After each integrated dose, the extraction capability of Am(III) and Eu(III) was evaluated as described in section C.
The considered integrated doses in this experiment were 500 kGy and 1000 kGy at a dose rate of 4 kGy/h.

Hydrolytic stability = details: 0.1 mol/L in n-dodecane/1-octanol (95:5)%vol; permanent contact with 3 mol/L nitric acid
Experimental: as §1, §2, §3

[3] = Re-extraction with diluted nitric acid solutions; details: 0.1 mol/L in TPH/1-octanol (95:5)%vol; for re-extraction steps necessary: 0.016 mol/L of stable Eu(III) present
Experimental: 0.1 mol/L samples of compound 4 in a "TPH/1-octanol (95:5)%vol" mixture were prepared. Extractions of Am(III) and Eu(III) were carried out from 3 mol/L nitric acid solutions containing only the radionuclides ^152Eu and ^241Am and 3 mol/L nitric acid solutions containing the radionuclides ^152Eu and ^241Am and 0.016 mol/L of stable Eu(III), simulating the total concentration of Ln(III) in a HLLW from the PUREX process. Once the extraction process was carried out, a washing step with a 1 mol/L nitric acid solution was carried out. Then, different re-extraction steps were carried out with 0.01 mol/L nitric acid solutions, simulating a continuous process. The evolution of the concentration of Am(III) and Eu(III) in the organic phase in the different extraction, scrubbing and re-extraction steps is shown in Figure 14.
Nevertheless, it is possible to regenerate the organic solutions of compound 18 for subsequent extraction cycles in an industrial continuous process.

[4] = Extraction capability from aqueous 3 mol/L nitric acid; details: 0.1 mol/L in TPH/1-octanol (50:50)%vol; aqueous [HNO3] 3 mol/L spiked with 152Eu(III) and 241Am(III)
Experimental: The organic solutions of the extractant compounds to be tested were prepared dissolving an amount of the extractant compound in the solvent considered in each case to reach the ligand concentration of 0.1 mol/L. The solvents considered were 1-octanol, n-heptane, n-dodecane, the industrial solvent "TPH" (hydrogenated tetrapropylene) used in the "La Hague" reprocessing plant of the COGEMA company (Compagnie générale des matières nucléaires) and different mixtures "TPH/1-octanol or n-dodecane/1-octanol".
Once said solution was obtained, its equilibration was carried out. To that end, 800 µL of the organic solution of the compound to be studied were contacted with 800 µL of nitric acid of 3 mol/L concentration and it was stirred vigorously in an oscillating shaker for 5 minutes. The phases were separated by centrifugation at 5000 rpm. 800 µL of the said organic phase were again contacted with 800 µL of nitric acid of 3 mol/L concentration for another 5 minutes of vigorous shaking. The phases were separated by centrifugation, the organic phase being considered to be equilibrated.
600 µL of the organic phase of the compound to be studied, previously equilibrated, were contacted with 600 µL of aqueous phase consisting of a 3 mol/L nitric acid solution spiked with 600 Bq of ^152Eu and 600 Bq of ^241Am. It was stirred vigorously by means of an oscillating shaker for 30 minutes and the phases were separated by centrifugation at 5000 rpm. 400 µL were taken from each of the phases for determining the concentration of the radionuclides ^152Eu and ^241Am. This determination was carried out by means of the high energy gamma spectrometry technique with a high-purity Ge detector (Canberra Inc.), using the 122 keV line for the determination of ^152Eu concentration and the 59.5 keV line for the determination of ^241Am concentration. The distribution coefficient was calculated by relating the concentration of each of the radionuclides in the organic phase and in the aqueous phase, according to the expression: DM = ([M]org)/([M]aq) [formula]
The distribution coefficients and the selectivity factor of each of them were determined as indicated in sections A) to C).

[5] = irradiated dissolved in n-dodecane/1-octanol (95:5)%vol, equilibrated with 3 mol/L nitric acid
[6] = irradiated in the absence of solvent

2-Dioctylcarbamoylmethoxy-N-[3-[3-(2-dioctylcarbamoyl-methoxyacetylamino)propoxy]propyl]acetamide [Compound 18]
DAm ([1]; after 42 days of permanent contact with 3 mol/L nitric acid): 280 | extraction capability of Eu (III) (DEu) [1]: remains constant | DEu [2, 5]: 964 | Dn ([2]; up to 1000 kGy, irradiated dissolved in n-dodecane/1-octanol (95:5)%vol, equilibrated with 3 mol/L nitric acid): 531 | stability against hydrolysis (Hydrolytic stability): very stable against hydrolysis | re-extraction steps necessary ([3]; 0.01 mol/L nitric acid): six re-extraction steps | re-extraction steps for complete re-extraction ([3]; only the radionuclides 152Eu and 241Am present, 0.01 mol/L nitric acid): four re-extraction steps | DAm [4]: 29 | DEu [4]: 177

2-Dioctylcarbamoylmethoxy-N-[3-[(2-dioctylcarbamoyl-methoxy-acetylamino)methyl]benzyl]acetamide [Compound 4]
DAm ([1]; after 66 days of permanent contact with 3 mol/L nitric acid): 145 | extraction capability of Eu (III) (DEu) [1]: remains constant | DAm [2, 5]: 180 | DEu [2, 5]: 780 | DAm [2, 6]: 540 | DEu [2, 6]: 1000 | stability against hydrolysis (Hydrolytic stability): very stable against hydrolysis | re-extraction steps necessary ([3]; 0.01 mol/L nitric acid): an additional re-extraction step is necessary | Am(III) and Eu(III) recovered from the organic phase ([3]; tracers only (152Eu and 241Am), after three re-extraction steps with 0.01 mol/L nitric acid): more than 99.9% | DAm [4]: 33 | DEu [4]: 141
